Experimental data as given in BindingDB's records for PubMed 33228976 (Massachusetts College of Pharmacy and Health Sciences …, 2021).

Molecular target: GTPase KRas (Homo sapiens, UniProt P01116)
Experiment: Antiproliferative activity against human COLO 320DM cells harboring wild type KRAS assessed as reduction in cell viability incubated for 24 hrs in presence of MVA

GTPase KRas, sequence (P01116 whole entry): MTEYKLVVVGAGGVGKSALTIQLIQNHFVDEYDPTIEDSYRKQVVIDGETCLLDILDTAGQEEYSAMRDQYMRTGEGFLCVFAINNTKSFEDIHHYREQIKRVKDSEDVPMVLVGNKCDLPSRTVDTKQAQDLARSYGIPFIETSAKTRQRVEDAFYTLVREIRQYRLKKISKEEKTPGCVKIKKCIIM

CCCC[C@@H](C)C=C(C)C=C(C)C(=O)NC1=C[C@@](O)(C=CC=CC=CC(=O)NC2C(=O)CCC2=O)[C@@H]2O[C@@H]2C1=O [(R)-2,4,6-Trimethyl-deca-2,4-dienoic acid {(1S,5S,6R)-5-hydroxy-5-[(1E,3E,5E)-6-(2-hydroxy-5-oxo-cyclopent-1-enylcarbamoyl)-hexa-1,3,5-trienyl]-2-oxo-7-oxa-bicyclo[4.1.0]hept-3-en-3-yl}-amide]
IC50: 3.58 µM
